Assay results taken from patent US4767720A, “Antidigoxin antibodies” (HSC Research Development Corporation, priority 1985, dated 1988).
Entries after “also recorded” stand apart in the source; their conditions may differ.

Tests used:
[1] = system: antibodies raised against ozonized digoxin-BSA; type: binding, rabbit; conditions: for competition for 3H-digoxin binding / cross reaction with the new antibody: 3H-digoxin RIA, FIG. 7a and 7b; for cross-reactivity index: calculated from the molar concentration required to reduce the 3H-digoxin binding by 50%; for Digoxin apparent value measured by [3H]digoxin RIA: metabolite alone at the actual concentration of the line, actual digoxin 0
Method: The ^3 H-digoxin radioimmunoassay method was adapted from that previously described in Cerceo E. and Elloso CA (1972) Factors Affecting the Radioimmunoassay of Digoxin, Clin. Chem. 18, 539-542. Briefly, tubes containing 0-30 ng ^3 H-digoxin (3000 dpm) in PBS were incubated at room temperature for 15 mins in the presence of 1/20 diluted antidigoxin serum. Ice cold dextran coated charcoal was added and incubated at 4° C. for 10 mins. This mixture was centrifuged and the ^3 H-digoxin remaining in the supernate was counted in a liquid scintillation spectrometer. Controls in the absence of serum and for non-immune serum were performed in parallel.
The degree of cross reactivity of the digoxin metabolites was monitored using the ^3 H-digoxin radioimmunoassay.

[2] = system: antibodies generated against periodate-oxidized digoxin-BSA conjugate; type: binding; conditions: metabolite alone at the actual concentration of the line, actual digoxin 0
Excerpt: A comparison was made between the antiserum of Example 4 and the commercially available antidigoxin serum using FPIA (fluorescence polarization immuno assay) to measure the digoxin concentration for solutions containing known levels of the digoxin metabolites as identified in the following Table 3.

[3] = system: commercial antidigoxin antibodies raised against BSA periodate conjugated digoxin; test: 125I-digoxin RIA using commercial antidigoxin antibodies (whole serum or affinity purified); type: binding; conditions: for Concentration Measured by RIA Using Affinity Purified Antibody: antibody affinity purified from the same immune serum; for Concentration Measured by RIA Using whole Serum: commercial antidigoxin antibodies, true concentration of antigen given
Method: Antidigoxin antibodies raised against BSA periodate conjugated digoxin were purchased from Antibodies Incorporated (Davis, Calif.) and Wien Laboratories (Succasunna, N.J.). Antidigoxin activity was determined using the ^125 I-digoxin radioimmune assay as previously described. Soldin, S; Papanastasion-Diamand, A; Heyes, J;, Lingwood C. A. and Olley, P. (1984) Are Immunoassays for Digoxin Reliable? Clin. Biochem. 17, 317-320. The immune serum was precipitated with 40% ammonium sulfate. The precipitate was redissolved and dialysed against phosphate buffered saline pH 7.4 (PBS). Antidigoxin antibodies were further purified by immunoaffinity chromatography. Digoxin was covalently linked to agarose by use of a photoactive heterobifunctional crosslinking agent as described in Lingwood, C. A. (1984) Production of Glycolipid Affinity Matrices by Use of Heterobifunctional Crosslinking Agents, J. Lipid Res. 25, 1010-1012. Amino hexyl agarose was treated with 2 mM hydroxysuccinimidyl azidobenzoate in the dark for 1 hour at room temperature. The beads were washed with water and 2 mg ^3 H-digoxin (1 mg/ml enthanol/water 1:1) was added. The beads were rotoevaporated to dryness when the digoxin was absorbed onto the beads. The dry beads were then irradiated for 2 min/1 cm from a Mineralight II UV source with stirring, when the digoxin is covalently attached to the agarose beads. The matrix was washed with 100 column volumes 50% ethanol and 50 column volumes water. The wash fractions were concentrated and unbound ^3 H-digoxin was measured. The amount of digoxin coupled/ml agarose was calculated (0.2 μmoles/ml beads).
The immunoglobulin fraction from 1 ml immune serum was applied and the digoxin column was washed with PBS. Antidigoxin activity was measured using the automated ^125 I-RIA method. […] Specific antibodies were eluted by addition of 10 ml 1M KI followed by 10 ml 1M KSCN. The eluted fractions were dialysed, concentrated vs sucrose, dialysed and used in the RIA.
Cross-reactivity of commercial antidigoxin antibodies towards the digoxin metabolites in which one, two and three sugars have been removed (digoxigenin bisdigitoxoside, monodigitoxoside and […] respectively) was measured. […] Purification of the antidigoxin antibodies by affinity chromatography considerably reduces this cross reactivity such that the metabolites are now recognized on a one to one basis relative to digoxin.

[4] = system: antidigoxin antibody raised against a bovine serum albumin-digoxin conjugate immunogen; conditions: background statement on prior-art antibodies; cited from earlier work

SMILES: C[C@H]1O[C@@H](O[C@H]2[C@@H](O)C[C@H](O[C@H]3[C@@H](O)C[C@H](O[C@H]4CC[C@@]5(C)[C@H](CC[C@@H]6[C@@H]5CC[C@]5(C)[C@@H](C7=CC(=O)OC7)CC[C@]65O)C4)O[C@@H]3C)O[C@@H]2C)C[C@H](O)[C@@H]1O [Digitoxin]
- competition for 3H-digoxin binding / cross reaction with the new antibody [1]: considerable reduced reactivity
- cross-reactivity index [1]: 11%
- Digoxin apparent value measured by [3H]digoxin RIA [1]: 0 nmol/L
- Digoxin apparent value measured by FPIA [2]: 9.6 nmol/L

SMILES: C[C@H]1O[C@@H](O[C@H]2[C@@H](O)C[C@H](O[C@H]3CC[C@@]4(C)[C@H](CC[C@@H]5[C@@H]4C[C@@H](O)[C@]4(C)[C@@H](C6=CC(=O)OC6)CC[C@]54O)C3)O[C@@H]2C)C[C@H](O)[C@@H]1O [Digoxigenin bisdigitoxide, digoxigenin bisdigitoxide]
- Concentration Measured by RIA Using Affinity Purified Antibody [3]: 6.3 nmol/L
- Concentration Measured by RIA Using whole Serum [3]: 25.2 nmol/L
- cross-reactivity index [1]: 14.6%
- Digoxin apparent value measured by [3H]digoxin RIA [1]: 0.8 nmol/L
- Digoxin apparent value measured by FPIA [2]: 6.05 nmol/L
- cross-reactivity with the antibodies [4]: react with the antibodies

SMILES: C[C@H]1O[C@@H](O[C@H]2CC[C@@]3(C)[C@H](CC[C@@H]4[C@@H]3C[C@@H](O)[C@]3(C)[C@@H](C5=CC(=O)OC5)CC[C@]43O)C2)C[C@H](O)[C@@H]1O [Digoxigenin monodigitoxide]
- Concentration Measured by RIA Using Affinity Purified Antibody [3]: 5.0 nmol/L
- Concentration Measured by RIA Using whole Serum [3]: 24.3 nmol/L
- cross-reactivity index [1]: 3.7%
- Digoxin apparent value measured by [3H]digoxin RIA [1]: 0.7 nmol/L
- Digoxin apparent value measured by FPIA [2]: 10 nmol/L
- cross-reactivity with the antibodies [4]: react with the antibodies

SMILES: C[C@]12CC[C@H](O)C[C@H]1CC[C@@H]1[C@@H]2C[C@@H](O)[C@]2(C)[C@@H](C3=CC(=O)OC3)CC[C@]12O [Digoxigenin]
- Concentration Measured by RIA Using Affinity Purified Antibody [3]: 6.9 nmol/L
- Concentration Measured by RIA Using whole Serum [3]: 25.2 nmol/L
- competition for 3H-digoxin binding / cross reaction with the new antibody [1]: ineffective antigen
- Digoxin apparent value measured by [3H]digoxin RIA [1]: 0 nmol/L
- Digoxin apparent value measured by FPIA [2]: 13.8 nmol/L
- cross-reactivity with the antibodies [4]: react with the antibodies

SMILES: C[C@]12CC[C@H](O)C[C@H]1CC[C@@H]1[C@@H]2C[C@@H](O)[C@]2(C)[C@@H](C3COC(=O)C3)CC[C@]12O (stereo partly shown) [Dihydrodigoxigenin]
- Concentration Measured by RIA Using Affinity Purified Antibody [3]: 0.8 nmol/L
- Concentration Measured by RIA Using whole Serum [3]: 0.8 nmol/L
- cross-reactivity with the antibodies [4]: little or no cross-reactivity

SMILES: C[C@@H](O)[C@@H](O)[C@@H](O)CC=O [digitoxose]
- competition for 3H-digoxin binding / cross reaction with the new antibody [1]: does not compete for digoxin binding; also recorded: does not cross react at all

SMILES: CC1OC(OC2C(O)CC(OC3C(O)CC(OC4CCC5(C)C(CCC6C5CC(O)C5(C)C(C7=CC(=O)OC7)CCC65O)C4)OC3C)OC2C)CC(O)C1O (stereo not shown) [digoxin, Digoxin]
- competition for 3H-digoxin binding / cross reaction with the new antibody [1]: effectively competed out

SMILES: CC1OC(OC2C(O)CC(OC3C(O)CC(OC4CCC5(C)C(CCC6C5CC(O)C5(C)C(C7COC(=O)C7)CCC65O)C4)OC3C)OC2C)CC(O)C1O (stereo not shown) [dihydrodigoxin]
- cross-reactivity with the antibodies [4]: little or no cross-reactivity
